Assay results: US11617741B1, “Method for inhibiting growth of bacteria” (priority 2021, dated 2023)
Converted amounts (≈) assume the structure as drawn. Marks after values point to notes of the source that are not given here.

What was measured:
[1] = biological target: Bacillus subtilis glyQS T-box; test: Binding to chemically synthesized truncated stem I construct; conditions: truncated stem I construct of glyQS T-box
[2] = test system: A549 human lung epithelial cells; test: alamarBlue cell redox activity; format: cell-based; conditions: 128 μg/ml, 48 hours
Description: (§1) alamarBlue was purchased (Thermo Scientific) and used according to the manufacturer's directions. In short, 50,000 cells of either A549 or J774.16 were added into a 96-well plate in 200 μl and left to adhere overnight. As a control, we used a 96-well plate with the desired drugs at 2× the final concentrations in 160 μl without adding cells. The cells' medium was removed, and 100 μl fresh medium was added, followed by 100 μl of 2× drug from the corresponding wells in the drug plate. Media were added to the drug plate to reduce the concentrations to 1×, and the cells were incubated at 37° C. for 48 or 72 hours. alamarBlue was added at 10 μl per 100 μl, and the fluorescence of both plates at 590 nm was read after overnight incubation. The drug plate fluorescence was subtracted from the cells' plate respective values, and the data were normalized to untreated cells' reading. All plates included a vehicle control used as the 0-μg/ml value for each drug tested. All concentrations were tested in triplicate and included at least three biological replicates. A media control, untreated control, a killing control, and a vehicle control were always included. The cytotoxicity of synergistic or additive MICs of PKZ18 analogs and a common antibiotic (co-MIC) on eukaryotic cells was tested on A549 cells as above, but the two plates were set up identically to the checkerboard assay so that the final concentrations tested corresponded to those tested against MRSA.

[3] = test system: J774.16 murine macrophages; test: alamarBlue cell redox activity; format: cell-based; conditions: for cellular redox activity: 64 μg/ml
Description: as §1

B. subtilis 168 [4] = test system: B. subtilis 168
Description: Gentamicin on BHI agar was used as a control. In short, MRSA and B. subtilis were grown overnight in BHI, and 3-hour day cultures at the optical density of A620 of 0.1 were started for both organisms. The optical density after 3 hours of growth was measured; cultures were then pelleted and resuspended to give 10^11 CFU/ml by optical density. CFU of 10^11 per OD were plated in total; 100 μl of the cells were then plated on BHI agar containing either 128 μg/m1PKZ18 or 64 μg/m1PKZ18-22. Serial dilutions of the cells were plated on plain BHI agar in order to calculate the CFU/ml, which was calculated as the number of colonies found on the plates divided by the total number of bacteria plated. CFU means colony forming units, a measure of live bacteria.

glyQS T-box = test: qRT-PCR transcriptional read-through of T-box-regulated glyQS (confirmation of inhibition of T-box mechanism); format: cell-based, Bacillus subtilis 1A5; conditions: confirmation of inhibition of T-box mechanism from qRT-PCR assay
Description: Sample preparation of RNA and cDNA.

B. subtilis 168 [5] = test: Minimum inhibitory concentration determination; format: cell-based, Bacillus subtilis
Description: (§2) The 96-well plate was organized as follows. Media (100 μl) were added to all wells.

S. aureus 4220 = test system: S. aureus 4220
Description: MICs were determined essentially as previously described (Frohlich KM, Weintraub SF, Bell JT, Todd GC, Väre VYP, Schneider R, Kloos ZA, Tabe ES, Cantara WA, Stark CJ, Onwuanaibe UJ, Duffy BC, Basanta-Sanchez M, Kitchen DB, McDonough KA, Agris PF. 2019. Discovery of small-molecule antibiotics against a unique tRNA-mediated regulation of transcription in Gram-positive bacteria. ChemMedChem 14:758-769.). In short, cultures were grown overnight in the appropriate media, diluted to A620 of 0.1, grown for 3 hours, and again diluted to A620 of 0.1. Cultures were then diluted 10-fold, of which 5 μl were added to each well of the 96-well plate used for the experiment except the media control wells. The initial well inoculum was 7.5×10^5 bacteria for S. aureus and 2.5×10^5 bacteria for B. subtilis (bacterial numbers were measured by OD). The 96-well plate was organized as follows. Media (100 μl) were added to all wells. Stock solutions (100 μi) containing 2 times the highest concentration of antibiotics to be tested were loaded to column 1, with two technical repeats per drug. […] The following controls were included: vehicle control (DMSO, chloroform, ethanol, etc.), cells in plain media, and media control (no cells). The initial optical density (A620) of the 96-well plate was determined, the plate was grown for 16 to 24 hours, and at that time, the final optical densities (A620) were read. The initial reading was subtracted from the final reading, and the technical replicates were averaged. MICs of PKZ18 and analogs were compared to clinically used antibiotics such as gentamicin.

[6] = biological target: Bacillus subtilis tyrS T-box; test: Binding to chemically synthesized truncated stem I construct; conditions: truncated stem I construct of tyrS T-box
[7] = test system: B. subtilis glyQS Stem I specifier loop; test: UV-monitored thermodynamic stability measurements of stem I constructs; format: binding, Bacillus subtilis
Description: Thermodynamic parameters were derived from four UV-monitored destabilizations and four renaturations of chemically synthesized wild-type and mutant truncated B. subtilis glyQS Stem I specifier loops in the absence and presence of PKZ18 (10 mM Na2HPO4 and 10 mM KH2PO4; final pH 6.8). The absorbance was collected at 260 nm and was performed using a Varian Cary 3 UV-visible spectrophotometer equipped with a Peltier temperature control accessory. The temperature was increased at a rate of 1° C. per minute from 5 to 85° C. Absorbance data at 260 nm were collected as a function of temperature at a rate of four data points per minute. All experiments were performed simultaneously with a control cell containing buffer only. The error calculated is the error of the mean.

E. coli = test: Minimum inhibitory and bactericidal concentration determination, Gram-negative control; format: cell-based, Escherichia coli
Description: as §2

[8] = test system: J774.16 murine macrophages; test: Trypan blue cell viability counting; format: cell-based; conditions: 48 hours
Description: J774.16 cells were grown in J7 medium from a fresh passage in a 1:4 dilution of 70 to 80% confluent cells. The cells were allowed to adhere in 6-well plates overnight. The medium was replaced, and drugs were added to desired concentrations in a total volume of 5 ml/well. A media control, untreated control, a killing control of Triton X-100, and a vehicle control were always included. After 48 hours treatment, medium was removed, and fresh media and Trypan blue were added 1:1 in a final volume of 400 μl. Cells, 100 to 200, from two areas of each well were counted and the data averaged and normalized against untreated cells. The vehicle control served as the 0.0-μg/ml value. At least three biological replicates were included for each drug at each concentration.

S. aureus N315 (MRSA) = test: Antibiotic resistance frequency (fluctuation assay); format: cell-based, Staphylococcus aureus; conditions: MRSA
Description: Gentamicin on BHI agar was used as a control.

[9] = test system: S. aureus N315 (MRSA isolate); test: Minimum inhibitory and bactericidal concentration determination; format: cell-based, Staphylococcus aureus
Description: as §2

[10] = test system: S. aureus (ATCC 29213) biofilm; test: MBEC-HTP biofilm model, single agents, CFU recovery; conditions: range of concentrations up to 1.024 mg/mL
Description: An overnight culture of S. aureus (ATCC 29213) was diluted to 1×10^7 cells/mL in tryptic soy broth (TSB) supplemented with 10% human plasma (Innovative Research, Novi, Mich. USA) and added to the wells of an MBEC™-HTP Assay Biofilm Innoculator (Innovotech, Edmonton, AB, Canada). The plate was incubated overnight at 37° C. and shaken at 125 rpm. […] Control wells were without a COMPOUND OF Formula I. The treatment plate was incubated for 24 h at 37° C. after which the lid was removed, rinsed with PBS, and placed in a new 96-well plate containing TSB. The biofilm was removed from the assay lid into the recovery plate wells by sonication, a new plate cover was added, and the viability of the biofilm was determined after 24 h of incubation at 37° C. by reading the OD at 625 nm. Three independent experiments were conducted. Concentrations of interest were followed up with colony forming unit (CFU) recovery and scanning electron microscopy analysis. After conclusion of the MBEC assay, the minimum bactericidal concentration (MBC) was determined. […]
After rinsing in PBS, designated pegs were snapped off the lid using sterile tweezers and placed in 1.5 mL Eppendorf tubes containing 200 μL PBS. […] The plates were then imaged and colonies counted on a ColonyDoc-It™ Imaging station (UVP, Analytik Jena, Beverly, Mass., USA).

[11] = test system: PKZRSA1 (PKZ18-22-resistant MRSA); test: MICs against PKZ18-22-resistant mutant compared to WT MRSA; format: cell-based, Staphylococcus aureus
Description: as §2

[12] = test system: planktonic growth of Staphylococcus
Description: An overnight culture of S. aureus (ATCC 29213) was diluted to 1×10^7 cells/mL in tryptic soy broth (TSB) supplemented with 10% human plasma (Innovative Research, Novi, Mich. USA) and added to the wells of an MBEC™-HTP Assay Biofilm Innoculator (Innovotech, Edmonton, AB, Canada). The plate was incubated overnight at 37° C. and shaken at 125 rpm. […] Control wells were without a COMPOUND OF Formula I. The treatment plate was incubated for 24 h at 37° C. after which the lid was removed, rinsed with PBS, and placed in a new 96-well plate containing TSB. The biofilm was removed from the assay lid into the recovery plate wells by sonication, a new plate cover was added, and the viability of the biofilm was determined after 24 h of incubation at 37° C. by reading the OD at 625 nm. Three independent experiments were conducted. Concentrations of interest were followed up with colony forming unit (CFU) recovery and scanning electron microscopy analysis. After conclusion of the MBEC assay, the minimum bactericidal concentration (MBC) was determined. The MBC is the lowest concentration of an antibacterial agent required to kill a particular bacterium. The peg lid from the MBEC assay was removed from the challenge plate and 20 μL of medium from each well of the challenge plate was removed and added to a new sterile 96-well plate filled with 180 μL TSB. […]

[13] = similarly sized construct with gly codon but lacking the specifier loop
[14] = wild-type truncated glyQS stem I with the specifier loop

Cc1sc(NC(=O)C2C3CCC(C3)C2C(=O)O)nc1-c1ccc(C(C)C)cc1 (centres unmarked) [PKZ18-00]
dissociation constant [1]: low micromolar | redox activity [2]: near-total reduction | cellular redox activity ([3]; 48 hours): increased | cellular redox activity ([3]; 72 hours): decreased | redox activity ([3]; 128 μg/ml, 48 hours): near-total reduction | resistant colonies (B. subtilis 168 [4]): did not generate resistant colonies | T-Box targeting (glyQS T-box; Table 1): Yes | T-Box targeting (glyQS T-box; Table 2): Yes | fold lower MIC in minimal versus rich media (B. subtilis 168 [5]; B. subtilis 168): 8 fold | MIC against B. subtilis 168 in minimal media (B. subtilis 168 [5]; minimal media): 8 µg/mL (≈ 20.1 µM) | MIC against B. subtilis 168 in rich media (B. subtilis 168 [5]; rich media): 64 µg/mL (≈ 161 µM) | fold lower MIC in minimal versus rich media (S. aureus 4220; S. aureus 4220): 4 fold | MIC against S. aureus in minimal media (S. aureus 4220; S. aureus 4220, minimal media): 16^a μg/ml | MIC against S. aureus in rich media (S. aureus 4220; S. aureus 4220, rich media): 64^a μg/ml | dissociation constant [6]: low micromolar | change in melting temperature ΔTm [7, 13]: −0.33 | free energy ΔΔG [7, 13]: +0.22 | change in melting temperature ΔTm [7, 14]: −18.52 °C | free energy ΔΔG [7, 14]: +3.41 kcal mol^−1 | MIC E. coli (E. coli): > 256 µg/mL | MBC E. coli (E. coli; value in parentheses): > 256 µg/mL | cell viability ([8]; 64 μg/ml): 76% | macrophage viability ([8]; 128 μg/ml): 25% | resistant colonies (S. aureus N315 (MRSA)): No PKZ18-resistant colonies were found | MIC S. aureus N315 ([9]; Table 2): 64 µg/mL (≈ 161 µM) | MBC S. aureus N315 ([9]; Table 2, value in parentheses): > 256 µg/mL

CN[C@H](CC(C)C)C(=O)N[C@H]1C(=O)N[C@@H](CC(N)=O)C(=O)N[C@H]2C(=O)N[C@H]3C(=O)N[C@H](C(=O)N[C@H](C(=O)O)c4cc(O)cc(O)c4-c4cc3ccc4O)[C@H](O)c3ccc(c(Cl)c3)Oc3cc2cc(c3O[C@@H]2O[C@H](CO)[C@@H](O)[C@H](O)[C@H]2O[C@H]2C[C@](C)(N)[C@H](O)[C@H](C)O2)Oc2ccc(cc2Cl)[C@H]1O [vancomycin]
MBEC efficacy at highest concentration [10]: not effective | fold increase in MIC against PKZRSA1 compared to WT [11]: 2 fold | planktonic growth over a range of concentrations [12]: no growth
